Measurements reported in patent publication US20240059693A1, “FUSED BICYCLIC PYRAZOLE DERIVATIVES AND METHODS OF USE THEREOF FOR THE TREATMENT OF HERPESVIRUSES” (Merck Sharp & Dohme LLC, priority 2020, published 2024).
Where two headings read alike, the source gives them in different places.

Experiments:
[1] = target: T1, Human cytomegalovirus DNA polymerase (Human cytomegalovirus, UniProt P08546); assay: HCMV polymerase assay (AlphaLISA); format: biochemical; conditions: HCMV DNA polymerase 0.2 nM, 60 minutes at 37° C.; read-out: CMV (IC50)
T1 construct: made in house; host or cells: SF21 insect cells (baculovirus vector)
Method: (§1) Human cytomegalovirus and varicella zoster virus DNA polymerases were expressed via baculovirus vector in SF21 cells and purified. Heterodimeric nucleic acid substrate used in the herpesvirus polymerase reactions was generated by annealing a 59-mer template to a 17-mer digoxigenin-labeled primer. Polymerase (HCMV final concentration of 0.2 nM; VZV final concentration of 0.4 nM) was combined with an inhibitor compound or DMSO in assay buffer (10 mM HEPES, pH 7.5, 25 mM KCl, 25 mM NaCl, 5 mM MgCl2, 5% glycerol, 0.67 mg/ml bovine serum albuminutes, and 1 mM tris(2-carboxyethyl)phosphine), and this mixture was pre-incubated for 30 minutes at room temperature in 384-well microtiter plates. The polymerization reaction was initiated by the addition of template/primer substrate (final concentration: 1.6 nM), and dNTPs (final concentration: 24 nM dCTP, 24 nMdGTP, 16 nM dATP, 16 nM dTTP, and 0.8 nM biotin-dUTP). After 60 minutes incubation at 37° C., reactions were terminated with quench buffer (25 mM HEPES pH 7.5, 100 mM NaCl, 0.25% Tween-20, 12 mM EDTA, and 1 mg/ml bovine serum albumin). Incorporation of biotinylated UTP was detected with 2.5-ug/ml anti-DIG AlphaLISA acceptor beads and 5-10 ug/ml streptavidin AlphaLISA donor beads (Perkin Elmer). Compound effects were normalized to the window defined by the controls (DMSO only and pre-quenched wells) and were fit using a 4-parameter algorithm to report an IC50.

[2] = target: T2, varicella zoster virus DNA polymerase (Varicella-zoster virus, UniProt P09252); assay: VZV polymerase assay (AlphaLISA); format: biochemical; conditions: VZV DNA polymerase 0.4 nM, 60 minutes at 37° C.
T2 construct: made in house; host or cells: SF21 insect cells (baculovirus vector)
Method: as §1

HCMV Strain AD169 = assay: Viral qPCR assay, HCMV in MRC-5 cells; format: cell-based, Human cytomegalovirus; conditions: read-out: CMV MRC5 Cell (EC50)
Method: (§2) MRCS cells, Vero cells, and MeWo cells were obtained from ATCC and were maintained at 37° C./5% CO2/90% relative humidity in Minimal Essential Medium with 10% fetal bovine serum, […] L-glutamine, 100 units/ml penicillin and 100 ug/ml streptomycin. Assay plates were prepared by dispensing compounds dissolved in DMSO into wells of 384 well collagen-coated plates using an ECHO acoustic dispenser. Each compound was tested in a 10-point, serial 3-fold dilution. Controls included uninfected cells and infected cells treated only with DMSO. Assays were initiated by mixing selected cells, in suspension, with virus, and dispensing 50 μl/well infected cells to pre-plated compounds. Plates were incubated at 37° C./5% CO2/90% relative humidity for ˜72 hrs to permit genomic replication, and infected cells were lysed by the addition of an equal volume of lysis buffer (10 mM Tris-HCl, pH8, 50 mM KCl, 2 mM MgCl2, 0.45% NP-40, 0.45% Tween-20, and 100 μg/ml proteinase K). An aliquot of the lysate was transferred to a 384-well PCR plate and incubated at 56° C. for 1 hour and then at 95° C. for 10 min. Levels of a viral gene and of the cellular control, PPIA (Thermo Fisher Assay ID=Hs04194521_s1), were measured in separate 10 μL qPCR assays using TaqMan® Gene Expression Master Mix (Applied Biosystems), and an 7900HT Fast Real-Time PCR System with 384-Well Block Module. 7-point, serial 10-fold dilutions of a plasmid standard were run on each plate to generate a standard curve, and genome copies numbers were calculated by plotting experimental Ct onto linear regression of the standard curve. Viral genome copy numbers were normalized by cellular control copy number, and compound effects were normalized to the window defined by the controls. Calculated % effects were fit using a 4-parameter algorithm, and EC50 was reported.
as §2, with “gene” for “gene and of the cellular control, PPIA (Thermo Fisher Assay ID=Hs04194521_s1),”, “in” for “in separate”, “Compound effects on viral” for “Viral”, “number” for “numbers were normalized by cellular control copy number, and compound effects”
HCMV: Strain AD169 Street was assayed in MRC-5 cells and was used at 0.05-0.1 pfu/cell. The assays were performed in either growth media or in the same media with 50% fetal bovine serum. Primer-probe set was Thermo Fisher Assay ID=AIFATFK.

VZV = assay: Viral qPCR assay, VZV in MRC5 cells; format: cell-based, varicella zoster virus; conditions: read-out: VZV MRC5 Cell (IC50)
Method: as §2
as §2, with “gene” for “gene and of the cellular control, PPIA (Thermo Fisher Assay ID=Hs04194521_s1),”, “in” for “in separate”, “Compound effects on viral” for “Viral”, “number” for “numbers were normalized by cellular control copy number, and compound effects”
(§3) VZV: Strain Street was maintained as an infected cell stock in MRC-5 cells. It was assayed in MeWo or MRCS cells and was used at 0.04-0.1 pfu/cell. The assays were performed in growth medium. Primer-probe set was Thermo Fisher Assay ID=AIPAEXQ. HSV-1: Strain F Street was assayed in Vero or MRCS cells and was used at 0.0005-0.004 pfu/cell in growth medium. Primer-probe set was Thermo Fisher Assay ID=AIBJZIB

HSV-1 Strain F = assay: Viral qPCR assay, HSV-1 in MRC5 cells; format: cell-based, Herpes Simplex Virus type 1; conditions: read-out: HSV1 MRC5 Cell (EC50)
Method: as §2
as §2, with “gene” for “gene and of the cellular control, PPIA (Thermo Fisher Assay ID=Hs04194521_s1),”, “in” for “in separate”, “Compound effects on viral” for “Viral”, “number” for “numbers were normalized by cellular control copy number, and compound effects”
as §3

HSV2 = assay: Viral qPCR assay, HSV2 in MRC5 cells; format: cell-based, Herpes Simplex Virus type 2; conditions: read-out: HSV2 MRC5 Cell (EC50)
Method: as §2
as §2, with “gene” for “gene and of the cellular control, PPIA (Thermo Fisher Assay ID=Hs04194521_s1),”, “in” for “in separate”, “Compound effects on viral” for “Viral”, “number” for “numbers were normalized by cellular control copy number, and compound effects”

[3] = Human betaherpesvirus 5, AD169, MRC5, 72 h
[4] = Human alphaherpesvirus 3, MRC5, 72 h
[5] = Human alphaherpesvirus 1, MRC5, 72 h
[6] = Human alphaherpesvirus 2, MRC5, 72 h

T1 sequence (P08546 whole entry): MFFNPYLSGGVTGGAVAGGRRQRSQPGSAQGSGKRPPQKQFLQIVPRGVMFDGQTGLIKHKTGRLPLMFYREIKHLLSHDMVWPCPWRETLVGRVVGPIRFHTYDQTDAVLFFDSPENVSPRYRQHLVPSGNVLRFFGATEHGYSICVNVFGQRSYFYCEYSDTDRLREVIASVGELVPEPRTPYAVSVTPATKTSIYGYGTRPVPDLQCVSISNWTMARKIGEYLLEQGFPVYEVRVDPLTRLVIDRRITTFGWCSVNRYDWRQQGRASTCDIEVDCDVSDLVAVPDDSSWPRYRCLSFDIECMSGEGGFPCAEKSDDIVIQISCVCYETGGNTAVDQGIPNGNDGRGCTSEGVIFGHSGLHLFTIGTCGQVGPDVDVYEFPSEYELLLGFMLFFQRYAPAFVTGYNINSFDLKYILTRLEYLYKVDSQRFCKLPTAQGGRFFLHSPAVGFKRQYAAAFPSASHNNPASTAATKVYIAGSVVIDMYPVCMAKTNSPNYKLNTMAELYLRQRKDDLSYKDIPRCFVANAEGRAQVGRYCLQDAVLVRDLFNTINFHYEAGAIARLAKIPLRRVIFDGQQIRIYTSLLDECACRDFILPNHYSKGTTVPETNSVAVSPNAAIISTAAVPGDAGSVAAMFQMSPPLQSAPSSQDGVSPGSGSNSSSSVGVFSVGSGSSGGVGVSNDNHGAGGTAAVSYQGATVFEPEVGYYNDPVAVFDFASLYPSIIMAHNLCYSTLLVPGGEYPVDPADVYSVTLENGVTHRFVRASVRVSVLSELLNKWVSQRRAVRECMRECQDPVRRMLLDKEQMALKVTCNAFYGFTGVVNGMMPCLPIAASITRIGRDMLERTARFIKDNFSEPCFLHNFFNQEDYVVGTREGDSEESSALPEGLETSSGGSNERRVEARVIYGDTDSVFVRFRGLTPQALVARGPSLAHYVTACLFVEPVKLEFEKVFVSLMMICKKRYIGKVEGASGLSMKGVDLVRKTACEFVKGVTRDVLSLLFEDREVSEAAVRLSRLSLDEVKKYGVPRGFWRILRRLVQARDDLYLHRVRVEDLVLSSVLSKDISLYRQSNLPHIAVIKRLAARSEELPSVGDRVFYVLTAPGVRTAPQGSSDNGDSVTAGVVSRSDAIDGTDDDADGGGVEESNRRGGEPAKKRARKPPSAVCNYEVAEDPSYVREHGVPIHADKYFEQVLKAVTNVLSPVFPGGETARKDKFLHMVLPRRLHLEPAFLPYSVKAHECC
T2 sequence (P09252 whole entry): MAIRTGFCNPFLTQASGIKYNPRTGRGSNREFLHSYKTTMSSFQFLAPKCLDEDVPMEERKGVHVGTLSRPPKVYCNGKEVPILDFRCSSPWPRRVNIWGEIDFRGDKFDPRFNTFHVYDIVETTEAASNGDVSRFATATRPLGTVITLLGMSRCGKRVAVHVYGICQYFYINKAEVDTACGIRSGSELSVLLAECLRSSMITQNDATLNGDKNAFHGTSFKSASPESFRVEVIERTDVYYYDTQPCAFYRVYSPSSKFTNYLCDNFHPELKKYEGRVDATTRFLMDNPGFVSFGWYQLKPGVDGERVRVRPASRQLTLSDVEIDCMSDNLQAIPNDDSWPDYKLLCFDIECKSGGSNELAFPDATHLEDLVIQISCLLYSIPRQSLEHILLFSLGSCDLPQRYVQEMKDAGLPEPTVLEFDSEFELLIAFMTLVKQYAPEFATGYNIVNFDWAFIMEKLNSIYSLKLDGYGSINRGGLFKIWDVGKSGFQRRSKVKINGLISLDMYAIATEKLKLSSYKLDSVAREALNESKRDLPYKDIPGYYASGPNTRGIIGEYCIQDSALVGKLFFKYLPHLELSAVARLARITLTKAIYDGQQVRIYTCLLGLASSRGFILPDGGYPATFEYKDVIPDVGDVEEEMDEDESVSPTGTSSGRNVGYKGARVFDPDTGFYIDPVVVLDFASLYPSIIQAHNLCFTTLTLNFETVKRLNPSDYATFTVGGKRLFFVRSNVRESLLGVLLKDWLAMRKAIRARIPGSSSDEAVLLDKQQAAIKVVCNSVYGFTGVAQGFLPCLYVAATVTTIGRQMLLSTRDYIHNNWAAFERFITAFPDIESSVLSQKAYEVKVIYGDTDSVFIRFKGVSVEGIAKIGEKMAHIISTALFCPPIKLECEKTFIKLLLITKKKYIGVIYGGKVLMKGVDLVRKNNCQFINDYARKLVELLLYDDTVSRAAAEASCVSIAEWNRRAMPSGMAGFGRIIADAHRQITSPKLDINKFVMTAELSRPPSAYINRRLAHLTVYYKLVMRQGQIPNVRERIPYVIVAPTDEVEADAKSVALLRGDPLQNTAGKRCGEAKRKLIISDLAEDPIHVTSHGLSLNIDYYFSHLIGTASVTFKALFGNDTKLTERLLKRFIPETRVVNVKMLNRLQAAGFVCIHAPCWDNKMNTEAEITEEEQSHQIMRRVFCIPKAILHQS

Row | SMILES | IC50 [1] | IC50 [2] | EC50 (HCMV Strain AD169; [3]) | IC50 (VZV; [4]) | EC50 (HSV-1 Strain F; [5]) | EC50 (HSV2; [6]) | EC50 (HCMV Strain AD169; MRC5 cells, ~72 hrs) | IC50 (VZV; ~72 hrs) | EC50 (HSV-1 Strain F; ~72 hrs) | EC50 (HSV2; ~72 hrs)
1 | Cn1nc(C(=O)NCc2ccc(Cl)cc2)c2c1CC(CC1CCC(=O)N1)C2 (single isomer, unassigned) [Compound 128] | 1060 nM | 289 nM | – | – | – | – | – | – | – | –
2 | Cc1csc(-n2nc(C(=O)NCc3ccc(Cl)cc3)c3c2CN(C[C@H]2CCC(=O)N2)C3)n1 [Compound 12] | 23 nM | – | 175 nM | 220 nM | 160 nM | 44.8 nM | – | – | – | –
3 | O=C1CC[C@H](CN2Cc3c(C(=O)NCc4ccc(Cl)cc4)nn(-c4ccccn4)c3C2)N1 [Compound 13] | 25.8 nM | – | 547 nM | 207 nM | 284 nM | 74.6 nM | – | – | – | –
4 | CCOc1cnc(-n2nc(C(=O)NCc3ccc(Cl)cc3)c3c2CN(C[C@H]2CCC(=O)N2)C3)nc1 [Compound 16] | 31.2 nM | – | 298 nM | 208 nM | 233 nM | 74.5 nM | – | – | – | –
5 | O=C1CC[C@H](CN2Cc3c(C(=O)NCc4ccc(Cl)cc4)nn(-c4ncc5ccccc5n4)c3C2)N1 [Compound 18] | 71.1 nM | – | 555 nM | 368 nM | 229 nM | 108 nM | – | – | – | –
6 | Cc1cn(C)c(-n2nc(C(=O)NCc3ccc(Cl)cc3)c3c2CN(C[C@H]2CCC(=O)N2)C3)n1 [Compound 19] | 90.6 nM | – | 399 nM | 535 nM | 650 nM | 333 nM | – | – | – | –
7 | Cn1ccnc1-n1nc(C(=O)NCc2ccc(Cl)cc2)c2c1CN(C[C@H]1CCC(=O)N1)C2 [Compound 20] | 115 nM | – | 448 nM | 309 nM | 449 nM | 143 nM | – | – | – | –
8 | O=C1CC[C@H](CN2Cc3c(C(=O)NCc4ccc(Cl)cc4)nn(-c4cnsn4)c3C2)N1 [Compound 22] | 11 nM | – | – | – | – | – | 313 nM | 413 nM | 231 nM | 251 nM
9 | O=C1CC[C@H](CN2Cc3c(C(=O)NCc4ccc(Cl)cc4)nn(-c4ncco4)c3C2)N1 [Compound 23] | 17.2 nM | – | 130 nM | 325 nM | 224 nM | 136 nM | – | – | – | –
10 | O=C1CC[C@H](CN2Cc3c(C(=O)NCc4ccc(Cl)cc4)nn(-c4ncccn4)c3C2)N1 [Compound 28] | 15.2 nM | – | – | – | – | – | 108 nM | 210 nM | 139 nM | 89.5 nM
11 | O=C1CC[C@@H](CN2Cc3c(C(=O)NCc4ccc(Cl)cc4)nn(-c4ncccn4)c3C2)N1 [Compound 31] | 26.9 nM | – | 435 nM | 1470 nM | 1040 nM | 1410 nM | – | – | – | –
12 | O=C1CC[C@@H](CN2Cc3c(C(=O)NCc4ccc(Cl)cc4)nn(-c4nccs4)c3C2)N1 [Compound 42] | 25.9 nM | – | 940 nM | 1050 nM | 996 nM | 1100 nM | – | – | – | –
13 | O=C1CC[C@@H](CN2Cc3c(C(=O)NCc4ccc(Cl)cc4)nn(C(F)F)c3C2)N1 [Compound 45] | 37.8 nM | – | 798 nM | 1030 nM | 1990 nM | 1040 nM | – | – | – | –
14 | Cn1nc(C(=O)NCc2ccc(Cl)cc2)c2c1CN(C[C@@H]1CCC(=O)N1)C2 [Compound 47] | 38.1 nM | – | 328 nM | 657 nM | 878 nM | 611 nM | – | – | – | –
15 | Cn1nc(C(=O)NCc2ccc(Cl)cc2)c2c1CN(C[C@H]1CC(F)C(=O)N1)C2 (stereo partly shown) [Compound 78] | 252 nM | – | 2880 nM | 2870 nM | 3030 nM | 2220 nM | – | – | – | –
16 | Cn1nc(C(=O)NCc2ccc(Cl)cc2)c2c1CN(C[C@@H]1CC(F)C(=O)N1)C2 (stereo partly shown) [Compound 79] | 69.6 nM | – | 232 nM | 1170 nM | 1180 nM | 935 nM | – | – | – | –
17 | Cn1nc(C(=O)NCc2ccc(Cl)cc2)c2c1CN(C[C@@H]1CC(F)(F)C(=O)N1)C2 [Compound 82] | 60.3 nM | – | 250 nM | 1450 nM | 2880 nM | 1020 nM | – | – | – | –
18 | CCC(C1CCC(=O)N1)N1Cc2c(C(=O)NCc3ccc(Cl)cc3)nn(C)c2C1 (stereo not shown) [Compound 90] | 31.7 nM | – | – | – | – | – | 212 nM | 1230 nM | 1320 nM | 1180 nM
19 | Cn1nc(C(=O)NCc2ccc(Cl)cc2)c2c1CN(CC13CC1CC(=O)N3)C2 (stereo not shown) [Compound 95] | 127 nM | – | 632 nM | 4550 nM | 3300 nM | 3720 nM | – | – | – | –
20 | O=C1N[C@@H](CN2Cc3c(C(=O)NCc4ccc(Cl)cc4)nn(C(F)F)c3C2)CO1 [Compound 99] | 5.07 nM | – | 60.5 nM | 53.1 nM | 79.5 nM | 43.2 nM | – | – | – | –
21 | CC1c2c(c(C(=O)NCc3ccc(Cl)cc3)nn2C)CN1C(C)C1CCC(=O)N1 (stereo not shown) [Compound 111] | 57.9 nM | – | – | – | – | – | 125 nM | 402 nM | 557 nM | 248 nM
22 | CC1c2c(c(C(=O)NCc3ccc(Cl)cc3)nn2C)CN1C(C)C1CCC(=O)N1 (stereo not shown) [Compound 112] | 105 nM | – | – | – | – | – | 148 nM | 263 nM | 294 nM | 233 nM
23 | Cn1nc(C(=O)NCc2ccc(Cl)cc2)c2c1C1(CCC1)N(C[C@H]1CCC(=O)N1)C2 [Compound 124] | 141 nM | – | – | – | – | – | 581 nM | 2160 nM | 3360 nM | 2350 nM
